# Data published in patent publication US20230357179A1, “RAF KINASE INHIBITORS AND METHODS OF USE THEREOF” (Deciphera Pharmaceuticals, LLC, priority 2021, published 2023).
# How the values were obtained:
# [1] = test system: WM3629 cells; assay: WM3629 cell proliferation assay (2), resazurin, 384-well; format: cell-based; conditions: inhibition of cell proliferation, 67-72 hours
# Method: WM3629 Cell Proliferation Assay (2)
# WM3629 cells (#WM3629-01-0001) are obtained from Rockland Immunochemicals Inc (Gilbertsville, PA). Briefly, cells were grown in MCDB 153 medium (Sigma, #M7403, St. Louis, MO) supplemented with 20% Leibovitz's L-15 (ThermoFisher #11415-064, Waltham, MA), 2% heat inactivated fetal bovine serum (ThermoFisher, #A3840001, Waltham, MA), 5 μg/mL Insulin (Bovine Pancreas) (Sigma, #I0516, St. Louis, MO), 1.68 mM Calcium Chloride (Sigma, #C-34006, St. Louis, MO) and 1% Penicillin/Streptomycin/L-Glutamine (ThermoFisher #10378016, Waltham, MA) at 37° C., 5% CO2, and 95% humidity. Cells are expanded until reaching 70-95% confluency at which point they are sub-cultured or harvested for assay use. Using the Beckman Coulter Echo 650, a serial dilution of test compound is dispensed into a 384-well black clear bottom plate in triplicate. One thousand one hundred twenty-five cells are added per well in 50 μL complete growth medium in the 384-well plate. Plates are incubated for 67-72 hours at 37° C., 5% CO2, and 95% humidity. […] Plates are read on a Synergy2 or equivalent reader (Biotek, Winooski VT) using an excitation of 540 nm and an emission of 600 nm. Data is analyzed using Prism software (GraphPad, San Diego, CA) to calculate IC50 values.
# [2] = test system: Miapaca-2 cells; assay: MiaPaca-2 combination cell proliferation assay (1) with cobimetinib, 96-well; format: cell-based; conditions: inhibition of cell proliferation, read-out: MiaPaca-2 Combo (1) IC50
# Method: MiaPaca-2 Combination Cell proliferation Assay (1)
# Miapaca-2 cells (catalog #CRL-1420) are obtained from the American Type Culture Collect (ATCC, Manassas, VA). Briefly, cells were grown in DMEM supplemented with 10% characterized fetal bovine serum (Invitrogen, Carlsbad, CA), 2.5% New Zealand sourced horse serum and 1% Penicillin/Streptomycin/L-Glutamine at 37° C., 5% CO2, and 95% humidity. Cells are expanded until reaching 70-95% confluency at which point they are subcultured or harvested for assay use. A serial dilution of test compound was dispensed into multiple 96-well black clear bottom plates in triplicate. A serial dilution of complete growth medium containing cobimetinib was prepared at twice the final concentration and 100 μL was dispensed across the test compound titration in triplicate. Three thousand cells are added per well in 100 μL complete growth medium in each 96-well plate. Plates are incubated for 67-72 hours at 37° C., 5% CO2, and 95% humidity. At the end of the incubation, 40 μL of a 440 μM solution of resazurin (Sigma, St. Louis, MO) in PBS is added to each well of the plate and plates are incubated for an additional 5-7 hours at 37° C., 5% CO2, and 95% humidity. Plates are read on a Synergy2 or equivalent reader (Biotek, Winooski VT) using an excitation of 540 nm and an emission of 600 nm. Drug synergy was assessed via BLISS analysis in the Combenefit software (Cancer Research UK Cambridge Institute, Cambridge, UK). Data is analyzed using Prism software (GraphPad, San Diego, CA) to calculate IC50 values. Shifts in test compound IC50 values are reported from top-constrained combination therapy curves.
Structure (SMILES),IC50 [1],IC50 [2]
CNC(=O)c1cc(-c2cncc(-c3cc(NC(=O)N4CC[C@H](C(F)(F)F)C4)ccc3C)c2)ccn1 [Example 228],1000 to 10000 nM,
CNC(=O)c1cc(-c2cc(-c3cc(NC(=O)N4CC[C@H](C(F)(F)F)C4)ccc3C)ccn2)ccn1 [Example 215],500 to 1000 nM,
Cc1cc(F)c(NC(=O)NCCC2(C)CC2)cc1-c1cc(OCCO)nc(-c2ccnc3[nH]ncc23)c1 [Example 87],,100 to 500 nM
